From patent US8455525B2, “Selective androgen receptor modulators” (Radius Health, Inc., priority 2008, dated 2013)
Counter-ions that a name gives are not always drawn.

biological target: T1, androgen receptor (AR) (Rattus norvegicus, UniProt P15207); assay: androgen receptor binding assay (fluorescence polarization, Fluormone AL Green competition); conditions: not given
T1 construct: purchased Invitrogen, Madison, Wis
T1 sequence (P15207 651-902 limits assumed): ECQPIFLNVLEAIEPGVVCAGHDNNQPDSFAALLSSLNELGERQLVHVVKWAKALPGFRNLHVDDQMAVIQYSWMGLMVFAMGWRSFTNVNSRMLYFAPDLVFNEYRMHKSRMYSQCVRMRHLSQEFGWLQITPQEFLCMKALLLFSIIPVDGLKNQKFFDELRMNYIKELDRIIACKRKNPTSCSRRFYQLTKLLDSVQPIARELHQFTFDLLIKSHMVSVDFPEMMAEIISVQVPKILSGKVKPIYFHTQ
Protocol: The assay was performed as specified by the manufacturer (Invitrogen, Madison, Wis.). Briefly, 1 μl of 10 mM compound was added to 500 μl of AR screening buffer in a 1.5 ml eppendorf tube to make a 2×10^−5M stock. 10-fold serial dilutions of the test compounds were prepared ranging in concentration from 10^−5M to 10^−12M. Each dilution was added in triplicate to a black 384-microtiter plate. The test compounds will be diluted 2-fold in the final reaction. 2×AR-Fluormone™ complex was prepared with 2 nM Flourmone AL Green™ and 30 nM AR. 25 μl of 2× complex was aliquoted to each reaction well, such that the final reaction volume was 50 μl per well. Plate was sealed with a foil cover and incubated in the dark at room temperature for 4 h. Polarization values for each well were measured. The polarization values were plotted against the concentration of the test compound. […] As a control, a competition curve for R1881 (methyltrienolone) was performed for each assay. Curve Fitting was performed using GraphPad Prism® software from GraphPad™ Software Inc. Binding data are reported as a single determination if the experiment was run once only and as the average of experiments if the binding experiment was performed two or more times with that compound.
Where multiple data points have been taken, the value reported is the average of the multiple determinations.

Row | Compound | IC50 [nM]
1 | Cc1c(N[C@@H](c2nnc(-c3cccc(F)c3)o2)[C@H](C)O)ccc(C#N)c1Cl [Example 81, 2-chloro-4-((1R,2S)-1-(5-(3-fluorophenyl)-1,3,4-oxadiazol-2-yl)-2-hydroxypropylamino)-3-methylbenzonitrile] | 2
2 | C[C@H](O)[C@@H](Nc1ccc(C#N)c(C(F)(F)F)c1)c1nnc(-c2ccccc2)o1 [Example 16, 4-((1R,2S)-2-hydroxy-1-(5-phenyl-1,3,4-oxadiazol-2-yl)propylamino)-2-(trifluoromethyl)benzonitrile] | 35
3 | Cc1c(N[C@@H](c2nnc(-c3ccc(Cl)c(Cl)c3)o2)[C@H](C)O)ccc(C#N)c1Cl [Example 55, 2-Chloro-4-((1R,2S)-1-(5-(3,4-dichlorophenyl)-1,3,4-oxadiazol-2-yl)-2-hydroxypropylamino)-3-methylbenzonitrile] | 11
4 | CC(=O)Nc1ccc(-c2nnc([C@H](Nc3ccc(C#N)c(Cl)c3C)[C@@H](C)O)o2)cc1 [Example 70, N-(4-(5-((1R,2R)-1-(3-Chloro-4-cyano-2-methylphenylamino)-2-hydroxypropyl)-1,3,4-oxadiazol-2-yl)phenyl)acetamide] | 4
5 | Cc1c(N[C@@H](c2nnc(-c3ccc(C#N)cc3)o2)[C@@H](C)O)ccc(C#N)c1Cl [Example 23, 2-chloro-4-((1R,2R)-1-(5-(4-cyanophenyl)-1,3,4-oxadiazol-2-yl)-2-hydroxypropylamino)-3-methylbenzonitrile] | 0.7
6 | Cc1c(N[C@@H](c2nnc(-c3ccc(O)c(Cl)c3)o2)[C@H](C)O)ccc(C#N)c1Cl [Example 37, 2-Chloro-4-((1R,2S)-1-(5-(3-chloro-4-hydroxyphenyl)-1,3,4-oxadiazol-2-yl)-2-hydroxypropylamino)-3-methylbenzonitrile] | 0.2
7 | Cc1nnc([C@H](Nc2ccc(C#N)c(Cl)c2C)[C@H](C)O)o1 [Example 43, 2-Chloro-4-((1R,2S)-2-hydroxy-1-(5-methyl-1,3,4-oxadiazol-2-yl)propylamino)-3-methylbenzonitrile hydrochloride] | 3
8 | Cc1c(N[C@H](CCO)c2nnc(-c3ccc(C#N)cc3)o2)ccc(C#N)c1Cl [Example 79, (R)-2-chloro-4-(1-(5-(4-cyanophenyl)-1,3,4-oxadiazol-2-yl)-3-hydroxypropylamino)-3-methylbenzonitrile] | 2
9 | Cc1c(N[C@@H](c2nnc(-c3ccc(OS(=O)(=O)O)cc3)o2)[C@H](C)O)ccc(C#N)c1Cl [Example 72, Sodium 4-(5-((1R,2S)-1-(3-chloro-4-cyano-2-methylphenylamino)-2-hydroxypropyl)-1,3,4-oxadiazol-2-yl)phenyl sulfate] | 780
10 | Cc1c(N[C@@H](c2nnc(-c3ccc(O)c(F)c3)o2)[C@H](C)O)ccc(C#N)c1Cl [Example 29, 2-chloro-4-((1R,2S)-1-(5-(3-fluoro-4-hydroxyphenyl)-1,3,4-oxadiazol-2-yl)-2-hydroxypropylamino)-3-methylbenzonitrile] | 0.03
11 | C[C@H](O)[C@@H](Nc1ccc(C#N)c2ccccc12)c1nnc(-c2ccccc2)o1 [Example 13, 4-((1R,2S)-2-hydroxy-1-(5-phenyl-1,3,4-oxadiazol-2-yl)propylamino)-1-naphthonitrile] | 5
12 | Cc1c(N[C@@H](c2nnc(-c3cccc(Cl)c3)o2)[C@H](C)O)ccc(C#N)c1Cl [Example 21, 2-chloro-4-((1R,2S)-1-(5-(3-chlorophenyl)-1,3,4-oxadiazol-2-yl)-2-hydroxypropylamino)-3-methylbenzonitrile] | 3

same assay, conditions: single determination or average of multiple determinations; read-out: Binding IC50 (AR-Binding Affinity)

Row | Compound | IC50 [nM]
13 | C[C@H](O)[C@@H](Nc1ccc(C#N)c(Cl)c1)c1nnc(-c2ccccc2)o1 [Example 12, 2-chloro-4-((1R,2S)-2-hydroxy-1-(5-phenyl-1,3,4-oxadiazol-2-yl)propylamino)benzonitrile] | 300
14 | C[C@@H](O)[C@@H](Nc1ccc(C#N)c2sccc12)c1nnc(-c2ccc(C#N)cc2)o1 [Example 61, 4-((1R,2R)-1-(5-(4-cyanophenyl)-1,3,4-oxadiazol-2-yl)-2-hydroxypropylamino)benzo[b]thiophene-7-carbonitrile] | 1
